Results from patent US20250092395A1, “A GLUN2D INHIBITOR FOR USE IN THE TREATMENT OR RELAPSE PREVENTION OF A DEPRESSIVE EPISODE” (priority 2022, published 2025).
Entries after “also recorded” stand apart in the source; their conditions may differ.

How the values were obtained:
[1] = system: mice subjected to the chronic despair model (CDM); experiment: Chronic despair model (CDM) swim test, immobility time; format: in vivo; conditions: for immobility time of CDM mice treated with NAB-14, comedication: CIQ (10 mg/kg) or lorazepam (0,125 mg/kg) applied prior to NAB-14
Method: Induction phase: Mice were forced to swim in a glass cylinder (0 26 cm, 60 cm high) filled to 25 cm with 25° C. warm water for 10 min on 5 consecutive days. After the swimming, the animals were kept in their cages for two days before treatment and experiment readout was performed. The immobility time was measured in each session.
(§1) Behavioral Readout: After the treatment intervention, animals were either tested in an additional swim session (test day) to measure immobility time or tested in the InteliCage using the Nose-pokes sucrose preference test. For the assessment of the immobility time, mice were videotaped and two independent raters who were blinded to the experimental group analyzed the videos. Immobility time was defined as the cumulative time that the animals spend stationary with only enough movements of the tails or the forepaws to keep the head above the water surface. No distance is actively travelled except for passive floating, no directed movement of the front paws observed and the body of the animal mostly oriented parallel to the walls of the cylinder.

[2] = system: CA3-CA1 synapse in hippocampal brain slices of CDM mice; experiment: aLTP/aLTD inducibility in hippocampal brain slices of CDM mice after in vivo treatment; conditions: for LTP reestablishment by NAB-14, comedication / CDM-induced blockade of LTP inducibility (aLTP) / LTD inducibility (EPSP amplitude after aLTD protocol): CDM mice; for LTP reestablishment by NAB-14, comedication: CIQ or lorazepam injected 20 min prior to NAB-14; for CDM-induced blockade of LTP inducibility (aLTP): pretreatment; for LTD inducibility (EPSP amplitude after aLTD protocol): treatment after CDM
Method: Animals were preoxygenated in a 100% oxygen atmosphere for 5 min before cervical dislocation and decapitated according to national and institutional guidelines. Transverse 300 […] were cut from hippocampus with a Vibratome (VT1200, Leica, Japan). Slices were prepared in artificial cerebrospinal fluid (ACSF) containing (in mmol/I): 125 NaCl, 25 NaHCO3, 1.25 NaH2PO4, 2.5 KCL, 1 MgCl2, 27 Glucose, 2 CaCl2) bubbled with carbogen (95% O2, 5% CO2).
After 20 min resting time at 35° C., slices were kept at room temperature in aCSF and transferred into the recording chamber (volume approx. 2-3 ml) and continuously superfused with aCSF (rate approx. 5-10 ml/min-). Differential interference contrast video microscopy was used to identify location of CA1 pyramidal neurons (Zeiss Axioskop 2 FS plus, Zeiss Microscopy, Germany). Beside optical identification neurons were classified according to their characteristic firing frequency adaptation to long depolarising current pulses. Borosilicate glass tubes (2.0 mm outer diameter, 0.5 mm wall thickness; Hilgenberg, Germany) were used to pull patch pipettes. Pipettes with a resistance of 5-10 MΩ were used and series resistance of 10-50 MΩ was compensated by bridge balance. Patch pipettes were filled with an internal solution containing (in mM) for EPSP-measurements: 132K-gluconate, 20KCL, 2MgCl2, 10Hepes, 0.1EGTA, 4 Na2ATP, 0.3NaGTP. PH was adjusted to 7.2 with KOH. For current measurements: 135Csgluconate, 2CsCl, 5 QX314, 10 Hepes, 10EGTA, 2MgCl2, 2Na2ATP, 2TEACI, pH was adjusted to 7.2 with HCl. Osmolarity (280-300 mosmol/1) was controlled at the beginning of each experimental day with Osmomat (Gonotec GmbH, Germany).
A stimulation pipette (patch pipette with 1-3 MΩ resistance when filled with internal solution) was placed superficially in the stratum radiatum of the CA1 region in approximately […] distance to the pyramidal cell layer. Subthreshold excitatory postsynaptic potentials (EPSPs, 2 7 mV) were evoked by Schaffer collateral stimulation with voltage pulses of 10-80 V (frequency of 0.1 Hz, duration of 200 μs) using a stimulus isolator (Model 2100 Isolated pulse stimulator, Carlsborg, U.S.A.). Resting membrane potentials were between −75 and −65 mV and holding potential was −70 mV. 50 ms current test pulses (leading to 5-10 mV hyperpolarization) were applied to control input and series resistances after every 10th EPSP. EPSPs were combined with APs triggered by short (3 ms) current application of 900 pA via the patch-clamp electrode. EPC-10 amplifiers (HEKA, Germany) were used and signals were filtered at 5 kHz. Patchmaster NEXT software (Version 1.2, HEKA, Germany) was used for data acquisition and experiments were performed at room temperature.
aLTP: Five EPSPs and five postsynaptic APs were paired at 100 Hz with a 5 ms delay (AP after EPSP). Five of these bursts of synchronized EPSP→AP pairs were applied at theta frequency (5 Hz), followed by an interval of 10 sec and 4 more theta blocks, resulting in 125 EPSP/AP pairings.
aLTD: 360 postsynaptic APs were pared with 360 EPSPs with a delay of 20-30 ms between each AP/EPSP pairing at a frequency of 1 Hz. 1 Hz LTD: 600 EPSPs were elicited at a frequency of 1 Hz whilst CA1 pyramidal cell membrane potential was hold at −60 mV.
Long-term plasticity or molecular analyses were assessed as described above after the induction phase of the CDM and the specific treatment.
EPSP measurement: For baseline measurement, the mean amplitudes of 30 consecutive EPSPs before the induction protocol were calculated. 25 min after LTP induction the mean amplitude of 30 consecutive EPSPs was calculated and compared to the baseline of the same measurement. Changes of EPSP amplitudes were expressed as percentages of the baseline measurement and analysed for each experimental group applying a two-tailed Wilcoxon test. The differences between separate experimental groups were assessed using the Mann-Whitney test, not assuming normal distribution. […]

CDM mice = experiment: Nose-poke sucrose preference test in CDM mice; format: in vivo; conditions: CIQ or lorazepam applied prior to NAB-14
Description: as §1
The IntelliCage system (TSE Systems) allows simultaneous analysis of spontaneous and exploratory behavior, activity pattern, and drinking preference of up to 16 group-housed mice implanted with radio-frequency identification (RFID) transponders. The unit consists of an open common space with 4 red shelters in the center and 4 recording corners. Mice have free access to food in the middle of the IntelliCage, water is available in the corners behind remote-controlled guillotine doors. Each corner is equipped with 2 drinking bottles and permits the visit of only one mouse at the same time. The scored parameters—the nosepokes toward the doors and the licks on the bottles—were monitored by a PC-based tracking software (IntelliCage Plus, TSE Systems). Initially, the mice were allowed to adapt to the IntelliCage for at least 7 days with water available ad libitum in all corners. Then for 3 days the animals were habituated to the sucrose taste: in each corner one of the bottles was filled with 1% sucrose solution and the other one with water. Both doors in the corner were open allowing free choice between the bottles. Next, a nosepoke adaptation period was carried out, where all doors were closed and the mice had to perform a nosepoke to open them. The opened door closes automatically after 5 s of drinking. In all tasks involving sucrose-filled bottles, the positions of the bottles were exchanged every 24 h. The Nosepoke SPT protocol was used (see Alboni et al.) for measurement of sucrose preference with gradually increasing effort (number of nosepokes) to reach the sucrose bottles for a short period of time (12 h). In this paradigm each door opens in response to a nosepoke and closes after 5 s licking. The number of nosepokes needed to open a door to a side with a sucrose containing bottle gradually increases (1, 2, 3, 4, 5, 6, 8, 10, 12, 16, 20, 24) after every 8 sucrose licking sessions. For each bottle the number of licks was recorded and the averaged sucrose preference was calculated as percentage of the total number of licks.

AMPAR and NMDAR currents = experiment: Control experiments: currents recorded at −80 mV and +40 mV; format: cell-based, mice; conditions: CNQX 10 μM; for currents recorded at −80 mV: then addition of DAPV 100 μM; for currents recorded at +40 mV: DAPV 100 μM
[3] = system: CA3-CA1 synapse, CA1 pyramidal neurons in hippocampal brain slices; experiment: LTP/LTD protocols and wash-in in brain slices of unstressed mice, substance in bathing solution; format: cell-based; conditions: hydrochloride; for LTP inducibility, associative LTP protocol (aLTP): unstressed mice, bath with picrotoxin, R,S-ketamine 10 μM, S-ketamine 5 μM
[4] = system: SOM-dependent feedback loop, CA1 PCs; experiment: Feedback loop-activating protocol (FLAP) in CA1 PCs; format: cell-based, mice
Method: A 300 ms depolarizing current between +100 and +[…] was injected via the patch pipette into a PC to elicit a train of 5-10 APs. After an interval of 600 ms, one EPSP (5-10 mV amplitude) was elicited by Schaffer collateral stimulation. This pattern was continuously repeated at a frequency of 0.2 Hz. Substances were added by bath application after a stable 10 min baseline recording for an additional 20 min. For data analysis the maximum EPSP amplitudes from minutes 0-10 were averaged and compared to averaged maximum EPSP amplitudes from minutes 20-30.
The slope of the EPSP rise at 20% to 40% of its maximal amplitude, at which point an approximately linear increase in its voltage could be assumed, was fitted with Fitmaster software (HEKA, Germany). We analyzed 20 EPSPs before and 20 EPSPs 25-30 minutes after NAB-14 wash-in in the FLAP protocol for each experiment. The coefficient of variation (CV) is the standard deviation of the EPSP slopes divided by the mean. The inverse square of the CV of the postwash-in slopes was divided by the inverse square of the prewash-in slopes and plotted against the corresponding normalized slopes. Pre- and postwash-in measurements from a single experiment are connected by a line. In a standard quantal model for synaptic transmission, synaptic responses are affected either by presynaptic changes in the number of release sites and/or the probability of release or by modifications of the postsynaptic response to a single […]. A change in the ratio of CV-2 reflects a presynaptic action, whereas horizontal lines in the CV-2 plot indicate a change in postsynaptic responsiveness.

[5] = system: SOM-dependent feedback loop, CA1 PCs; experiment: as above; format: cell-based, mice; remark: listed apart in the source

Structure (SMILES): COc1ccc(OCC2c3cc(OC)c(OC)cc3CCN2C(=O)c2cccc(Cl)c2)cc1 (stereo not drawn) [CIQ]
- immobility time of CDM mice treated with NAB-14, comedication [1]: did not improve; also recorded: blocked NAB-14 effects
- LTP reestablishment by NAB-14, comedication [2]: abolishing LTP reestablishment; also recorded: blocked NAB-14 effects completely
- sucrose preference of CDM mice treated with NAB-14, comedication (CDM mice): did not improve

Structure (SMILES): N#Cc1cc2c(cc1[N+](=O)[O-])=NC(=O)C(=O)N=2 [CNQX, 6-Cyano-7-nitroquinoxaline-2,3-dione]
- currents recorded at −80 mV (AMPAR and NMDAR currents): fully blocked
- currents recorded at +40 mV (AMPAR and NMDAR currents): only partially be reduced; also recorded: only partially influenced

Structure (SMILES): N[C@H](CCCP(=O)(O)O)C(=O)O [DAPV, D-(−)-2-Amino-5-phosphonopentanoic acid]
- currents recorded at −80 mV (AMPAR and NMDAR currents): did not significantly change; also recorded: did not have further effects
- currents recorded at +40 mV (AMPAR and NMDAR currents): full blockade; also recorded: fully blocked

Structure (SMILES): N[C@@]1(c2ccccc2Cl)CCC[C@@H](O)C1=O [HNK, 2R,6R Hydroxynorketamine]
- CDM-induced blockade of LTP inducibility (aLTP) [2]: neither HNK nor mGluR2 antagonist 1 treatment did change this blockade
- LTD inducibility (EPSP amplitude after aLTD protocol) [2]: abolishes this reduction of amplitude; also recorded: completely blocked the LTD inducibility
- EPSP amplitude after aLTD ([2]; treatment prior to swim sessions (before CDM), male and female mice): complete revers of EPSP amplitudes

Structure (SMILES): COc1ccc2nc(/C=C/c3cccc([N+](=O)[O-])c3)n(-c3ccc(C(=O)O)cc3)c(=O)c2c1 [QNZ46, 4-[6-Methoxy-2-[(1E)-2-(3-nitrophenyl)ethenyl]-4-oxo-3(4H)-quinazolinyl]-Benzoic acid]
- immobility time ([1]; CDM mice, 7 mg/kg i.p. two hours before behavioral readout, n=10): significantly reduced

Structure (SMILES): CN[C@]1(c2ccccc2Cl)CCCCC1=O.Cl [S-ketamine, S-Ketamine hydrochloride]
- EPSP amplitude after associative LTD protocol (aLTD, NMDAR-independent) [3]: unaffected; also recorded: neither R,S-ketamine (10 μM) nor S-ketamine (5 μM) had an effect
- LTD inducibility, non-associative 1 Hz LTD protocol (NMDAR-dependent) [3]: fully blocked; also recorded: abolished
- LTP inducibility, non-associative 100 Hz LTP protocol [3]: significant blockade of inducibility of LTP
- aLTP induction [3]: neither K nor SK blocked aLTP induction; also recorded: not affected
- LTP inducibility, associative LTP protocol (aLTP) [3]: significant blockade of inducibility of LTP
- LTP inducibility, associative LTP protocol (aLTP) ([3]; listed as SK): complete inhibition of LTP

Structure (SMILES): CN1C(=O)CN=C(c2ccccc2)c2cc(Cl)ccc21 [diazepam]
- NAB-14-induced increase in EPSP amplitude in FLAP, in presence of diazepam [4]: abolished; also recorded: prevented
- EPSP amplitude in the absence of AP bursts [5]: neither NAB14 nor diazepam wash-in significantly altered the EPSP amplitude; also recorded: no significant pre/post changes

Structure (SMILES): O=C1Nc2ccc(Cl)cc2C(c2ccccc2Cl)=NC1O (stereo not drawn) [lorazepam]
- immobility time of CDM mice treated with NAB-14, comedication [1]: did not improve
- immobility time of CDM mice treated with NAB-14, comedication ([1]; listed as Lorazepam): blocked NAB-14 effects
- LTP reestablishment by NAB-14, comedication [2]: abolishing LTP reestablishment
- LTP reestablishment by NAB-14, comedication ([2]; listed as Lorazepam): blocked NAB-14 effects completely
- LTP inducibility, lorazepam alone ([2]; control and CDM condition): did block LTP inducibility
- sucrose preference of CDM mice treated with NAB-14, comedication (CDM mice): did not improve

Structure (SMILES): NC(=O)c1cc(-c2ccc(F)cc2)c2ccc(CN3C(=O)CCC3=O)cc2n1 [mGluR2 antagonist 1, 7-[(2,5-dioxopyrrolidin-1-yl)methyl]-4-(4-fluorophenyl)quinoline-2-carboxamide]
- CDM-induced blockade of LTP inducibility (aLTP) [2]: neither HNK nor mGluR2 antagonist 1 treatment did change this blockade
- LTD inducibility (EPSP amplitude after aLTD protocol) [2]: abolishes this reduction of amplitude; also recorded: completely blocked the LTD inducibility
